≈ marks a conversion by molar mass, not a printed value. Where “and” joins values, the source holds several entries; their conditions need not be identical. Identical values can stand only once. Like-named read-outs stand apart in the source and are kept apart here.
How the values were obtained:
physchem [1] = conditions: organic solvent or mixture, Mean Drug Solubility (± standard deviation)
[2] = 4.5 months
Text: A plurality of metered dose inhalers (MDIs) were filled with either the first or second therapeutic formulation. MDIs were stored either upright (Up) or inverted (in). Each MDI comprised a valve and a canister.

[3] = HFA 134a
physchem [4] = conditions: organic solvent or mixture
[5] = HFA 134a, Metering Valve 1908, 25° C., Up
[6] = HFA 134a, Metering Valve 1908, 40° C. (75% RH), Down
[7] = HFA 134a, Metering Valve 1908, 40° C. (75% RH), Up
[8] = HFA 134a, Metering Valve 1908, Presspart Plasma Coated 14 ml C128, 5° C., Up
[9] = HFA 134a, Metering valve 1904 (with dip tube 1906), 5° C., Up
[10] = HFA 134a, Metering valve 1904 (with dip tube 1906), 40° C. (75% RH), Down
[11] = HFA 134a, Metering valve 1904 (with dip tube 1906), 40° C. (75% RH), Up
[12] = HFA 152a, Metering Valve 1908, 5° C., Up
[13] = HFA 152a, Metering Valve 1908, 25° C., Up
[14] = HFA 152a, Metering Valve 1908, 40° C. (75% RH), Down
[15] = HFA 152a, Metering Valve 1908, 40° C. (75% RH), Up
[16] = HFA 152a, Metering valve 1904 (with dip tube 1906), 40° C. (75% RH), orientation not given
[17] = 0 %(w/w) ethanol, nicotine added 0.169 ± 0.009 %(w/w)
[18] = 14.8 %(w/w) ethanol, nicotine added 0.703 %(w/w)

SMILES: CN1CCC[C@H]1c1cccnc1 [Nicotine, L-Nicotine]
- solubility (physchem [1]; 50:50 HFA 134a/HFA 152a): 85.8 ± 3.2 µg/mL (≈ 529 µM)
- solubility (physchem [1]; 50:50 HFA 134a/HFO 1234ze): 62.3 ± 4.4 µg/mL (≈ 384 µM)
- solubility (physchem [1]; HFA 134a): 38.5 ± 1.6 µg/mL (≈ 237 µM)
- solubility (physchem [1]; HFA 152a): 50.8 ± 2.9 µg/mL (≈ 313 µM)
- solubility (physchem [1]; HFA 227ea): 19.8 ± 4.9 µg/mL (≈ 122 µM)
- solubility (physchem [1]; HFO 1234ze): 41.5 ± 0.8 µg/mL (≈ 256 µM)
- Solubility in 50:50 mixtures of propellants compared with single propellants (50:50 mixtures of propellants): higher solubility than either propellant alone
- Solubility, equivalent % by mass (HFA 152a): 0.56 % by mass
- Nicotine % of 5° C. [2, 5]: 98 % of 5 °C
- Nicotine can content [2, 5]: 23922.695 µg and 23527.533 µg
- Nicotine % of 5° C. [2, 6]: 98 % of 5 °C
- Nicotine can content [2, 6]: 23663.281 µg
- Nicotine % of 5° C. [2, 7]: 97 % of 5 °C
- Nicotine can content [2, 7]: 22809.747 µg and 23785.869 µg
- Nicotine % of 5° C. [2, 8]: 100 % of 5 °C
- Nicotine can content [2, 8]: 24166.562 µg and 24126.474 µg
- Nicotine % of 5° C. [2, 9]: 100 % of 5 °C
- Nicotine can content [2, 9]: 23891.217 µg and 23628.856 µg
- Nicotine % of 5° C. [2, 10]: 97 % of 5 °C
- Nicotine can content [2, 10]: 23102.878 µg and 23079.598 µg
- Nicotine % of 5° C. [2, 11]: 96 % of 5 °C
- Nicotine can content [2, 11]: 22360.125 µg and 23044.004 µg
- Nicotine % of 5° C. [2, 12]: 100 % of 5 °C
- Nicotine can content [2, 12]: 31626.434 µg and 30855.835 µg
- Nicotine % of 5° C. [2, 13]: 100 % of 5 °C
- Nicotine can content [2, 13]: 31592.559 µg and 30786.35 µg
- Nicotine % of 5° C. [2, 14]: 98 % of 5 °C
- Nicotine can content [2, 14]: 30939.368 µg and 30153.5 µg
- Nicotine % of 5° C. [2, 15]: 98 % of 5 °C
- Nicotine can content [2, 15]: 30982.764 µg and 30318.689 µg
- Nicotine % of 5° C. [2, 16]: 97 % of 5 °C
- Nicotine can content [2, 16]: 30395.997 µg and 30048.645 µg
- Effect of addition of ethanol on solubility [3]: greatly improved
- Detected/Added *100% [3, 17]: 99 ± 11%
- Nicotine Detected in Solution (by HPLC) % (w/w) [3, 17]: 0.168 ± 0.026 % (w/w)
- Nicotine Detected in Solution (by HPLC) μg per 50 μl [3, 17]: 104 ± 15 μg per 50 μl
- Detected/Added *100% [3, 18]: 108 ± 2%
- Nicotine Detected in Solution (by HPLC) % (w/w) [3, 18]: 0.760 ± 0.013 % (w/w)
- Nicotine Detected in Solution (by HPLC) μg per 50 μl [3, 18]: 421 ± 10 μg per 50 μl
- solubility (physchem [4]): ≥ 10 µg/mL

Reference: patent publication US20260102340A1, “Therapeutic Formulation” (1000739373 Ontario Ltd., priority 2022, published 2026)
